Data from patent publication US7875647B2, “Heteroaryl-pyrazole derivatives as cannabinoid CB1 receptor antagonists” (Green Cross Corporation, priority 2006, dated 2011).
Where two headings read alike, the source gives them in different places.

Molecular target: T1, Cannabinoid-1 receptor (CB1R) (Rattus norvegicus, UniProt P20272)
T1 construct: The tissue obtained from the brain of SD rats was homogenized; from tissue; host or cells: brain of SD rats (membrane pellet of the homogenate)
Test: Cannabinoid-1 receptor (CB1R) binding affinity assay ([3H]CP-55940, rat CB-1 receptor binding protocol)
Conditions: brain tissue of SD rats, [3H]CP-55940, 30° C. 60 min
Procedure: The tissue obtained from the brain of SD rats was homogenized with a Dounce homogenate system in TME (50 mM Tris, 3 mM MgCl2 and 1 mM EDTA, pH 7.4) at 4° C., and the homogenate was centrifuged at 48,000 g for 30 min. at 4° C. The pellet was resuspended in 5 ml of TME and the suspension was divided into aliquots and stored at −70° C. until its use in the following assay.
The tissue concentrations were determined by Bradford protein analysis, and 148 μl of brain tissue of the required concentration was added to the plate. The plate was covered and placed in a 30° C. incubator for 60 min, and then transformed on GF/B filtermat pretreated in polyethylenimine (PEI) using a cell harvester. Each filter was washed five times and dried at 60° C. for 1 hr. Then, the degree of radioactivity retained by the filter was measured using Wallac Microbeta™ (PerkinElmer Life Sciences, Inc., Massachusetts, U.S.A.) and the activity of the compound for inhibiting CB1 receptor was determined therefrom.

T1 sequence (P20272 whole entry): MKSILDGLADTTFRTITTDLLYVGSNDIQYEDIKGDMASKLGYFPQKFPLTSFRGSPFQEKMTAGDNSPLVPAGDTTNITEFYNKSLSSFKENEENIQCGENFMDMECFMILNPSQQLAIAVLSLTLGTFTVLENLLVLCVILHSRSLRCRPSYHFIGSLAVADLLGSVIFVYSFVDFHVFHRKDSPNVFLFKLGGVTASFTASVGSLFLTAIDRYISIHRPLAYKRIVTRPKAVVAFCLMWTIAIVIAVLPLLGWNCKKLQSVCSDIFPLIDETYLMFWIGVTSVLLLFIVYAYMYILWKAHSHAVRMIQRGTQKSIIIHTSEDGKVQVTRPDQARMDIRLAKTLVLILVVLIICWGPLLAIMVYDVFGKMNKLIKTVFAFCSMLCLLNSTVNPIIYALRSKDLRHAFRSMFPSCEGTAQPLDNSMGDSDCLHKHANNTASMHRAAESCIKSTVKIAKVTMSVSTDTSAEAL

Compound | IC50 (read-out: IC50) [nM] | IC50 (IC50(nM)) [nM]
CCc1c(-c2nnc(C3(c4ccc(C)cc4)CC3)o2)nn(-c2ccc(Cl)cc2Cl)c1-c1ccc(Cl)cc1 [Example 151, 2-(5-(4-chlorophenyl)-1-(2,4-dichlorophenyl)-4-ethyl-1H-pyrazol-3-yl)-5-(1-p-tolylcyclopropyl)-1,3,4-oxadiazole] | 7.05 | –
CCc1c(-c2nnc(C3(c4ccc(OC)cc4)CC3)o2)nn(-c2ccc(Cl)cc2Cl)c1-c1ccc(Cl)cc1 [Example 152, 2-(5-(4-chlorophenyl)-1-(2,4-dichlorophenyl)-4-ethyl-1H-pyrazol-3-yl)-5-(1-(4-methoxyphenyl)cyclopropyl)-1,3,4-oxadiazole] | 5.62 | –
CCc1c(-c2nnc(C3(c4ccc(Cl)cc4Cl)CC3)o2)nn(-c2ccc(Cl)cc2Cl)c1-c1ccc(Cl)cc1 [Example 153, 2-(5-(4-chlorophenyl)-1-(2,4-dichlorophenyl)-4-ethyl-1H-pyrazol-3-yl)-5-(1-(2,4-dichlorophenyl)cyclopropyl)-1,3,4-oxadiazole] | 5.83 | –
CCc1c(-c2nnc(C3(c4ccc(Cl)cc4)CCC3)o2)nn(-c2ccc(Cl)cc2Cl)c1-c1ccc(Cl)cc1 [Example 154, 2-(5-(4-chlorophenyl)-1-(2,4-dichlorophenyl)-4-ethyl-1H-pyrazol-3-yl)-5-(1-(4-chlorophenyl)cyclobutyl)-1,3,4-oxadiazole] | 7.42 | –
Cc1c(-c2nnc(C3(c4ccc(Cl)cc4)CCC3)o2)nn(-c2ccccc2Br)c1-c1ccc(Cl)cc1 [Example 159, 2-(1-(2-bromophenyl)-5-(4-chlorophenyl)-4-methyl-1H-pyrazol-3-yl)-5-(1-(4-chlorophenyl)cyclobutyl)-1,3,4-oxadiazole] | 7.51 | –
Cc1c(-c2nnc(C3(c4ccc(Cl)cc4)CC3)o2)nn(-c2c(Cl)cccc2Cl)c1-c1ccc(Cl)cc1 [Example 161, 2-(5-(4-chlorophenyl)-1-(2,6-dichlorophenyl)-4-methyl-1H-pyrazol-3-yl)-5-(1-(4-chlorophenyl)cyclopropyl)-1,3,4-oxadiazole] | 52.6 | –
Cc1c(-c2nnc(C3(c4ccc(Cl)cc4)CCC3)o2)nn(-c2c(Cl)cccc2Cl)c1-c1ccc(Cl)cc1 [Example 162, 2-(5-(4-chlorophenyl)-1-(2,6-dichlorophenyl)-4-methyl-1H-pyrazol-3-yl)-5-(1-(4-chlorophenyl)cyclobutyl)-1,3,4-oxadiazole] | 59.2 | –
Cc1c(-c2nnc(C3(c4ccc(Cl)cc4)CC3)o2)nn(-c2cc(Cl)ccc2Cl)c1-c1ccc(Cl)cc1 [Example 167, 2-(5-(4-chlorophenyl)-1-(2,5-dichlorophenyl)-4-methyl-1H-pyrazol-3-yl)-5-(1-(4-chlorophenyl)cyclopropyl)-1,3,4-oxadiazole] | 41.9 | –
Cc1c(-c2nnc(C3(c4ccc(Cl)cc4)CCC3)o2)nn(-c2cc(Cl)ccc2Cl)c1-c1ccc(Cl)cc1 [Example 168, 2-(5-(4-chlorophenyl)-1-(2,5-dichlorophenyl)-4-methyl-1H-pyrazol-3-yl)-5-(1-(4-chlorophenyl)cyclobutyl)-1,3,4-oxadiazole] | 200 | –
COc1ccc(-c2c(C)c(-c3nnc(C4(c5ccc(OC)cc5)CC4)o3)nn2-c2ccc(Cl)cc2Cl)cc1 [Example 172, 2-(1-(2,4-dichlorophenyl)-5-(4-methoxyphenyl)-4-methyl-1H-pyrazol-3-yl)-5-(1-(4-methoxyphenyl)cyclopropyl)-1,3,4-oxadiazole] | 17.9 | –
CCc1c(-c2nnc(C3(c4ccc(Cl)cc4Cl)CC3)o2)nn(-c2ccc(Cl)cc2Cl)c1-c1ccc(Br)cc1 [Example 174, 2-(5-(4-bromophenyl)-1-(2,4-dichlorophenyl)-4-ethyl-1H-pyrazol-3-yl)-5-(1-(2,4-dichlorophenyl)cyclopropyl)-1,3,4-oxadiazole] | 6.97 | –
CCc1c(-c2nnc(C3(c4ccc(OC)cc4)CC3)o2)nn(-c2ccc(Cl)cc2Cl)c1-c1ccc(Br)cc1 [Example 175, 2-(5-(4-bromophenyl)-1-(2,4-dichlorophenyl)-4-ethyl-1H-pyrazol-3-yl)-5-(1-(4-methoxyphenyl)cyclopropyl)-1,3,4-oxadiazole] | 5.71 | –
CCc1c(-c2nnc(C3(c4ccc(C)cc4)CC3)o2)nn(-c2ccc(Cl)cc2Cl)c1-c1ccc(Br)cc1 [Example 176, 2-(5-(4-bromophenyl)-1-(2,4-dichlorophenyl)-4-ethyl-1H-pyrazol-3-yl)-5-(1-p-tolylcyclopropyl)-1,3,4-oxadiazole] | 4.47 | –
CCc1c(-c2nnc(C3(c4ccccc4)CC3)o2)nn(-c2ccc(Cl)cc2Cl)c1-c1ccc(Br)cc1 [Example 177, 2-(5-(4-bromophenyl)-1-(2,4-dichlorophenyl)-4-ethyl-1H-pyrazol-3-yl)-5-(1-phenylcyclopropyl)-1,3,4-oxadiazole] | – | 3.01
CC(C)c1c(-c2nnc(C3(c4ccc(Cl)cc4)CC3)o2)nn(-c2ccc(Cl)cc2Cl)c1-c1ccc(Cl)cc1 [Example 181, 2-(5-(4-chlorophenyl)-1-(2,4-dichlorophenyl)-4-isopropyl-1H-pyrazol-3-yl)-5-(1-(4-chlorophenyl)cyclopropyl)-1,3,4-oxadiazole] | 9.72 | –
CC(C)c1c(-c2nnc(C3(c4ccc(Cl)cc4)CCC3)o2)nn(-c2ccc(Cl)cc2Cl)c1-c1ccc(Cl)cc1 [Example 182, 2-(5-(4-chlorophenyl)-1-(2,4-dichlorophenyl)-4-isopropyl-1H-pyrazol-3-yl)-5-(1-(4-chlorophenyl)cyclobutyl)-1,3,4-oxadiazole] | 22.5 | –
CCCc1c(-c2nnc(C3(c4ccc(Cl)cc4)CC3)o2)nn(-c2ccc(Cl)cc2Cl)c1-c1ccc(Cl)cc1 [Example 186, 2-(5-(4-chlorophenyl)-1-(2,4-dichlorophenyl)-4-propyl-1H-pyrazol-3-yl)-5-(1-(4-chlorophenyl)cyclopropyl)-1,3,4-oxadiazole] | 12.1 | –
CCCc1c(-c2nnc(C3(c4ccc(Cl)cc4)CCC3)o2)nn(-c2ccc(Cl)cc2Cl)c1-c1ccc(Cl)cc1 [Example 187, 2-(5-(4-chlorophenyl)-1-(2,4-dichlorophenyl)-4-propyl-1H-pyrazol-3-yl)-5-(1-(4-chlorophenyl)cyclobutyl)-1,3,4-oxadiazole] | 11.1 | –
CCc1c(-c2nnc(C3(c4ccccc4)CCCC3)o2)nn(-c2ccc(Cl)cc2Cl)c1-c1ccc(Br)cc1 [Example 188, 2-(5-(4-bromophenyl)-1-(2,4-dichlorophenyl)-4-ethyl-1H-pyrazol-3-yl)-5-(1-phenylcyclopentyl)-1,3,4-oxadiazole] | 15.5 | –
CC(C)c1c(-c2nnc(C3(C(F)(F)F)CC3)o2)nn(-c2ccc(Cl)cc2Cl)c1-c1ccc(Cl)cc1 [Example 190, 2-(5-(4-chlorophenyl)-1-(2,4-dichlorophenyl)-4-isopropyl-1H-pyrazol-3-yl)-5-(1-(trifluoromethyl)cyclopropyl)-1,3,4-oxadiazole] | 15 | –
CCCc1c(-c2nnc(C3(C(F)(F)F)CC3)o2)nn(-c2ccc(Cl)cc2Cl)c1-c1ccc(Cl)cc1 [Example 191, 2-(5-(4-chlorophenyl)-1-(2,4-dichlorophenyl)-4-propyl-1H-pyrazol-3-yl)-5-(1-(trifluoromethyl)cyclopropyl)-1,3,4-oxadiazole] | 15 | –
CC(=O)OCc1c(-c2nnc(C(C)(C)C)o2)nn(-c2ccc(Cl)cc2Cl)c1-c1ccc(Br)cc1 [Example 195, (5-(4-bromophenyl)-3-(5-tert-butyl-1,3,4-oxadiazol-2-yl)-1-(2,4-dichlorophenyl)-1H-pyrazol-4-yl)methyl acetate] | 12.1 | –
CC(=O)OCc1c(-c2nnc(C(C)(C)C)o2)nn(-c2ccc(Cl)cc2Cl)c1-c1ccc(Cl)cc1 [Example 196, (3-(5-tert-butyl-1,3,4-oxadiazol-2-yl)-5-(4-chlorophenyl)-1-(2,4-dichlorophenyl)-1H-pyrazol-4-yl)methyl acetate] | 22.4 | –
CC(=O)OCc1c(-c2nnc(C3(c4ccc(Cl)cc4)CC3)o2)nn(-c2ccc(Cl)cc2Cl)c1-c1ccc(Cl)cc1 [Example 197, (5-(4-chlorophenyl)-3-(5-(1-(4-chlorophenyl)cyclopropyl)-1,3,4-oxadiazol-2-yl)-1-(2,4-dichlorophenyl)-1H-pyrazol-4-yl)methyl acetate] | – | 7.07
CC(C)(C)c1nnc(-c2nn(-c3ccc(Cl)cc3Cl)c(-c3ccc(Cl)cc3)c2COC(=O)c2ccccc2)o1 [Example 198, (3-(5-tert-butyl-1,3,4-oxadiazol-2-yl)-5-(4-chlorophenyl)-1-(2,4-dichlorophenyl)-1H-pyrazol-4-yl)methyl benzoate] | 68.8 | –
CC(C)(C)c1nnc(-c2nn(-c3ccc(Cl)cc3Cl)c(-c3ccc(Br)cc3)c2CO)o1 [Example 200, (5-(4-bromophenyl)-3-(5-tert-butyl-1,3,4-oxadiazol-2-yl)-1-(2,4-dichlorophenyl)-1H-pyrazol-4-yl)methanol] | 6.35 | –
OCc1c(-c2nnc(C3(c4ccc(Cl)cc4)CC3)o2)nn(-c2ccc(Cl)cc2Cl)c1-c1ccc(Cl)cc1 [Example 201, (5-(4-chlorophenyl)-3-(5-(1-(4-chlorophenyl)cyclopropyl)-1,3,4-oxadiazol-2-yl)-1-(2,4-dichlorophenyl)-1H-pyrazol-4-yl)methanol] | 4.02 | –
CC(C)(C)c1nnc(-c2nn(-c3ccc(Cl)cc3Cl)c(-c3ccc(Cl)cc3)c2C=O)o1 [Example 202, 3-(5-tert-butyl-1,3,4-oxadiazol-2-yl)-5-(4-chlorophenyl)-1-(2,4-dichlorophenyl)-1H-pyrazole-4-carbaldehyde] | 36.2 | –
